Data from PubChem BioAssay (NCI).
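Values below derive from 48-hour exposures of cells grown in 96-well plates, with endpoints linearly interpolated between the two concentrations bracketing the appropriate inhibition level. The concentration for full growth arrest is given as TGI.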

How the values were obtained:
Assay in all cases: NCI anticancer screen, dose series, 48 h
UACC-257 melanoma = tested on: UACC-257 melanoma
MALME-3M melanoma = tested on: MALME-3M melanoma
SNB-75 CNS = tested on: SNB-75 CNS
SF-295 CNS = tested on: SF-295 CNS
SK-OV-3 ovarian = tested on: SK-OV-3 ovarian
SR leukemia = tested on: SR leukemia
RPMI-8226 leukemia = tested on: RPMI-8226 leukemia
OVCAR-4 ovarian = tested on: OVCAR-4 ovarian
LOX IMVI melanoma = tested on: LOX IMVI melanoma
SN12C renal = tested on: SN12C renal
OVCAR-8 ovarian = tested on: OVCAR-8 ovarian
HT29 colon = tested on: HT29 colon
SK-MEL-2 melanoma = tested on: SK-MEL-2 melanoma
OVCAR-3 ovarian = tested on: OVCAR-3 ovarian
EKVX NSCLC = tested on: EKVX NSCLC
BT-549 breast = tested on: BT-549 breast
MCF7 breast = tested on: MCF7 breast

| Structure (SMILES) | TGI (UACC-257 melanoma) [µM] | TGI (MALME-3M melanoma) [µM] | TGI (SNB-75 CNS) [µM] | TGI (SF-295 CNS) [µM] | TGI (SK-OV-3 ovarian) [µM] | TGI (SR leukemia) [µM] | TGI (RPMI-8226 leukemia) [µM] | TGI (OVCAR-4 ovarian) [µM] | TGI (LOX IMVI melanoma) [µM] | TGI (SN12C renal) [µM] | TGI (OVCAR-8 ovarian) [µM] | TGI (HT29 colon) [µM] | TGI (SK-MEL-2 melanoma) [µM] | TGI (OVCAR-3 ovarian) [µM] | TGI (EKVX NSCLC) [µM] | TGI (BT-549 breast) [µM] | TGI (MCF7 breast) [µM] |
| --- | --- | --- | --- | --- | --- | --- | --- | --- | --- | --- | --- | --- | --- | --- | --- | --- | --- |
| CC(CCC[C@H](C)CO)[C@H]1[C@@H](O)C(O)C2[C@@H]3C[C@@H](O)C4(O)C[C@@H](O)CC[C@]4(C)C3CC[C@@]21C (stereo partly drawn) | > 100 | > 100 | > 100 | > 100 | > 100 | > 100 | > 100 | > 100 | > 100 | > 100 | > 100 | > 100 | > 100 | > 100 | > 100 | – | – |
| COc1ccccc1Cc1ccc(C2C=CC3(CC(=O)C=C3C)C(=O)C2)o1 (stereo not drawn) | 68.9 | 47.5 | – | 65.9 | – | 43.9 | 39.2 | > 100 | 34.9 | 58.5 | 37.1 | > 100 | 30.8 | 23.5 | > 100 | 58.7 | 34.4 |
| O=C(CN(C(=O)OC12CC3CC(CC(C3)C1)C2)C(=O)OC12CC3CC(CC(C3)C1)C2)Oc1ccc([N+](=O)[O-])cc1 | > 100 | > 100 | > 100 | > 100 | > 100 | > 100 | – | > 100 | > 100 | > 100 | > 100 | > 100 | – | > 100 | > 100 | > 100 | > 100 |
| CCOC(=O)Cn1c2ccccc2c(=O)c2cc(C)c(C)c(C#N)c21 | > 100 | > 100 | 66.1 | > 100 | > 100 | > 100 | > 100 | – | > 100 | > 100 | > 100 | > 100 | > 100 | > 100 | > 100 | – | – |
| CC(=O)Nc1ccc2nc(-c3ccccn3)c(-c3ccccn3)nc2c1 | > 100 | > 100 | > 100 | > 100 | – | > 100 | > 100 | > 100 | > 100 | > 100 | > 100 | – | > 100 | > 100 | > 100 | > 100 | > 100 |
| COc1cc(OC)c(C(=O)c2cccs2)cc1N | > 100 | > 100 | > 100 | > 100 | > 100 | – | > 100 | > 100 | > 100 | > 100 | > 100 | > 100 | > 100 | > 100 | > 100 | – | – |
| CC(=O)OC(CC1(C)C(C)CCC23COC(=O)C2=CCCC31)c1ccoc1 (stereo not drawn) | 72.5 | 55.2 | 78.5 | > 100 | > 100 | – | – | > 100 | 47.9 | 71.8 | 54.2 | > 100 | 49.7 | 46.1 | 97.6 | – | – |
| CCOC(=O)CC1COc2ccc3c(c21)OCO3 (stereo not drawn) | > 100 | > 100 | > 100 | > 100 | > 100 | > 100 | > 100 | > 100 | > 100 | > 100 | > 100 | > 100 | > 100 | > 100 | > 100 | – | – |
| COC(=O)c1cc(C(=O)OC)c(CC(=O)C(=O)NC2C3CC4CC(C3)CC2C4)nc1CC(=O)C(=O)NC1C2CC3CC(C2)CC1C3 (stereo not drawn) | > 100 | > 100 | > 100 | > 100 | > 100 | > 100 | > 100 | > 100 | > 100 | > 100 | > 100 | > 100 | > 100 | > 100 | > 100 | – | – |
| N/N=C1\C(=O)N(Cc2ccccc2)C(=O)C1C(=O)NCc1ccccc1 (stereo not drawn) | > 100 | > 100 | – | > 100 | – | > 100 | > 100 | > 100 | – | > 100 | > 100 | > 100 | > 100 | > 100 | > 100 | – | – |
| CSC1NC(c2ccccc2)=C(C#N)C(=O)N1C1OCC(OC(C)=O)C(OC(C)=O)C1OC(C)=O (stereo not drawn) | > 100 | > 100 | > 100 | > 100 | > 100 | > 100 | > 100 | > 100 | > 100 | > 100 | > 100 | > 100 | – | > 100 | > 100 | > 100 | > 100 |
| N#CCc1c(-c2ccccc2)n(S(=O)(=O)c2ccccc2)c2ccccc12 | > 100 | > 100 | 62 | > 100 | – | > 100 | > 100 | > 100 | – | – | > 100 | > 100 | > 100 | > 100 | – | – | – |
| CC1CN=C(NS(=O)(=O)c2cc(C(=O)Nc3ccc(Cl)cc3)c(Cl)cc2S)NN1 (stereo not drawn) | > 100 | 39.1 | – | > 100 | > 100 | > 100 | 70.8 | > 100 | > 100 | > 100 | 59.3 | > 100 | 71.2 | > 100 | > 100 | > 100 | > 100 |
| Cc1ccc(-c2nc3ccccc3c(=O)n2NCC2(O)OCC(O)C(O)C2O)cc1 (stereo not drawn) | > 100 | > 100 | > 100 | > 100 | > 100 | > 100 | > 100 | > 100 | > 100 | > 100 | > 100 | > 100 | > 100 | > 100 | > 100 | – | – |
| N#Cc1ccc(Cc2ccccn2)cc1Cl | > 100 | > 100 | – | > 100 | > 100 | > 100 | – | > 100 | > 100 | > 100 | > 100 | > 100 | > 100 | – | > 100 | – | – |
